These are literature values, as cited in patent publication US9012171B2, “Systems and methods for measuring translation activity in viable cells” (Anima Cell Metrology, Inc., priority 2007, dated 2015).

This data set concerns premature termination codons (PTC). To be noted: genetic disorders with premature termination codons in the coding sequence of a critical protein.

`O=C(O)c1cccc(-c2noc(-c3ccccc3F)n2)c1` [PTC124]: the “required protein produced, relative to normal concentrations” value is recorded as 1-5%.
